According to the NIST ThermoML archive (doi:10.1021/je800334m):

Assay: excess molar enthalpy (molar enthalpy of mixing); xn = mol fraction of the nth substance listed
Details: Liquid, Flow calorimetry

CN(C)CCO [2-(N,N-dimethylamino)ethanol] + CO
Details	excess molar enthalpy [kcal/mol]
298.2 K, 100 kPa, x1 = 0.0499	-0.0602
298.2 K, 100 kPa, x1 = 0.099	-0.108
298.2 K, 100 kPa, x1 = 0.1495	-0.144
298.2 K, 100 kPa, x1 = 0.1981	-0.172
298.2 K, 100 kPa, x1 = 0.2479	-0.193
298.2 K, 100 kPa, x1 = 0.2982	-0.207
298.2 K, 100 kPa, x1 = 0.3481	-0.214
298.2 K, 100 kPa, x1 = 0.3968	-0.217
298.2 K, 100 kPa, x1 = 0.4466	-0.214
298.2 K, 100 kPa, x1 = 0.4972	-0.207
298.2 K, 100 kPa, x1 = 0.5483	-0.197
298.2 K, 100 kPa, x1 = 0.5992	-0.183
298.2 K, 100 kPa, x1 = 0.6494	-0.167
298.2 K, 100 kPa, x1 = 0.6981	-0.149
298.2 K, 100 kPa, x1 = 0.7506	-0.127
298.2 K, 100 kPa, x1 = 0.8007	-0.105
298.2 K, 100 kPa, x1 = 0.8477	-0.0821
298.2 K, 100 kPa, x1 = 0.8977	-0.0564
298.2 K, 100 kPa, x1 = 0.9512	-0.027
298.2 K, 10000 kPa, x1 = 0.05	-0.0659
298.2 K, 10000 kPa, x1 = 0.0993	-0.112
298.2 K, 10000 kPa, x1 = 0.1479	-0.146
298.2 K, 10000 kPa, x1 = 0.1986	-0.175
298.2 K, 10000 kPa, x1 = 0.2485	-0.194
298.2 K, 10000 kPa, x1 = 0.2961	-0.207
298.2 K, 10000 kPa, x1 = 0.3458	-0.214
298.2 K, 10000 kPa, x1 = 0.3976	-0.216
298.2 K, 10000 kPa, x1 = 0.4474	-0.214
298.2 K, 10000 kPa, x1 = 0.4981	-0.207
298.2 K, 10000 kPa, x1 = 0.5447	-0.198
298.2 K, 10000 kPa, x1 = 0.5952	-0.184
298.2 K, 10000 kPa, x1 = 0.645	-0.168
298.2 K, 10000 kPa, x1 = 0.6988	-0.148
298.2 K, 10000 kPa, x1 = 0.7452	-0.129
298.2 K, 10000 kPa, x1 = 0.7948	-0.108
298.2 K, 10000 kPa, x1 = 0.8481	-0.0818
298.2 K, 10000 kPa, x1 = 0.898	-0.0562
313.2 K, 100 kPa, x1 = 0.0499	-0.062
313.2 K, 100 kPa, x1 = 0.099	-0.109
313.2 K, 100 kPa, x1 = 0.1495	-0.148
313.2 K, 100 kPa, x1 = 0.1981	-0.177
313.2 K, 100 kPa, x1 = 0.2479	-0.197
313.2 K, 100 kPa, x1 = 0.2982	-0.21
313.2 K, 100 kPa, x1 = 0.3481	-0.217
313.2 K, 100 kPa, x1 = 0.3968	-0.219
313.2 K, 100 kPa, x1 = 0.4466	-0.217
313.2 K, 100 kPa, x1 = 0.4972	-0.211
313.2 K, 100 kPa, x1 = 0.5483	-0.199
313.2 K, 100 kPa, x1 = 0.5992	-0.187
313.2 K, 100 kPa, x1 = 0.6494	-0.17
313.2 K, 100 kPa, x1 = 0.6981	-0.151
313.2 K, 100 kPa, x1 = 0.7506	-0.13
313.2 K, 100 kPa, x1 = 0.8007	-0.106
313.2 K, 100 kPa, x1 = 0.8477	-0.0831
313.2 K, 100 kPa, x1 = 0.8977	-0.0566
313.2 K, 100 kPa, x1 = 0.9512	-0.028
313.2 K, 10000 kPa, x1 = 0.0502	-0.0624
313.2 K, 10000 kPa, x1 = 0.0996	-0.111
313.2 K, 10000 kPa, x1 = 0.1484	-0.148
313.2 K, 10000 kPa, x1 = 0.1992	-0.177
313.2 K, 10000 kPa, x1 = 0.2491	-0.198
313.2 K, 10000 kPa, x1 = 0.2968	-0.211
313.2 K, 10000 kPa, x1 = 0.3465	-0.219
313.2 K, 10000 kPa, x1 = 0.3983	-0.222
313.2 K, 10000 kPa, x1 = 0.4482	-0.219
313.2 K, 10000 kPa, x1 = 0.4989	-0.213
313.2 K, 10000 kPa, x1 = 0.5455	-0.203
313.2 K, 10000 kPa, x1 = 0.596	-0.19
313.2 K, 10000 kPa, x1 = 0.6457	-0.174
313.2 K, 10000 kPa, x1 = 0.6995	-0.153
313.2 K, 10000 kPa, x1 = 0.7458	-0.133
313.2 K, 10000 kPa, x1 = 0.7953	-0.111
313.2 K, 10000 kPa, x1 = 0.8485	-0.0847
313.2 K, 10000 kPa, x1 = 0.8983	-0.0578
328.2 K, 100 kPa, x1 = 0.1479	-0.141
328.2 K, 100 kPa, x1 = 0.1972	-0.171
328.2 K, 100 kPa, x1 = 0.2469	-0.192
328.2 K, 100 kPa, x1 = 0.2976	-0.206
328.2 K, 100 kPa, x1 = 0.3469	-0.214
328.2 K, 100 kPa, x1 = 0.3974	-0.216
328.2 K, 100 kPa, x1 = 0.4466	-0.214
328.2 K, 100 kPa, x1 = 0.4956	-0.207
328.2 K, 100 kPa, x1 = 0.5465	-0.197
328.2 K, 100 kPa, x1 = 0.5963	-0.183
328.2 K, 100 kPa, x1 = 0.6473	-0.167
328.2 K, 10000 kPa, x1 = 0.1487	-0.142
328.2 K, 10000 kPa, x1 = 0.1983	-0.171
328.2 K, 10000 kPa, x1 = 0.2481	-0.194
328.2 K, 10000 kPa, x1 = 0.2973	-0.207
328.2 K, 10000 kPa, x1 = 0.3465	-0.216
328.2 K, 10000 kPa, x1 = 0.397	-0.218
328.2 K, 10000 kPa, x1 = 0.446	-0.217
328.2 K, 10000 kPa, x1 = 0.4972	-0.21
328.2 K, 10000 kPa, x1 = 0.5455	-0.201
328.2 K, 10000 kPa, x1 = 0.5979	-0.187
328.2 K, 10000 kPa, x1 = 0.6457	-0.172
328.2 K, 10000 kPa, x1 = 0.6973	-0.153

CN(C)CCO [2-(N,N-dimethylamino)ethanol] + CCO
excess molar enthalpy [kcal/mol]
Details	298.2 K	313.2 K	328.2 K
100 kPa, x1 = 0.0717	-0.035	-0.0369	–
100 kPa, x1 = 0.1392	-0.0579	-0.0621	–
100 kPa, x1 = 0.2028	–	-0.0786	–
100 kPa, x1 = 0.2034	–	–	-0.0744
100 kPa, x1 = 0.2054	-0.0763	–	–
100 kPa, x1 = 0.2654	–	–	-0.0854
100 kPa, x1 = 0.2665	-0.0874	-0.0911	–
100 kPa, x1 = 0.3253	–	–	-0.092
100 kPa, x1 = 0.3264	-0.0938	-0.0978	–
100 kPa, x1 = 0.3839	–	–	-0.0953
100 kPa, x1 = 0.3845	-0.0975	-0.101	–
100 kPa, x1 = 0.4385	–	–	-0.0962
100 kPa, x1 = 0.4399	-0.0983	-0.102	–
100 kPa, x1 = 0.4916	-0.0967	-0.1	–
100 kPa, x1 = 0.4924	–	–	-0.094
100 kPa, x1 = 0.5427	-0.0933	-0.0963	-0.0913
100 kPa, x1 = 0.591	–	–	-0.0857
100 kPa, x1 = 0.5925	-0.0886	-0.0911	–
100 kPa, x1 = 0.6393	–	–	-0.0799
100 kPa, x1 = 0.6409	-0.0822	-0.0846	–
100 kPa, x1 = 0.683	–	-0.0777	–
100 kPa, x1 = 0.6848	–	–	-0.0727
100 kPa, x1 = 0.6874	-0.0745	–	–
100 kPa, x1 = 0.727	–	-0.0695	–
100 kPa, x1 = 0.7296	–	–	-0.065
100 kPa, x1 = 0.7314	-0.0665	–	–
100 kPa, x1 = 0.7727	-0.0592	-0.0602	–
100 kPa, x1 = 0.8108	–	-0.0513	–
100 kPa, x1 = 0.8157	-0.0487	–	–
100 kPa, x1 = 0.8553	-0.0402	-0.0402	–
100 kPa, x1 = 0.8911	-0.031	-0.0309	–
100 kPa, x1 = 0.9281	-0.0203	-0.0209	–
100 kPa, x1 = 0.9663	-0.00889	-0.00985	–
10000 kPa, x1 = 0.0699	–	-0.037	–
10000 kPa, x1 = 0.0721	-0.0371	–	–
10000 kPa, x1 = 0.1399	-0.0613	-0.0633	–
10000 kPa, x1 = 0.2039	-0.0767	-0.0802	–
10000 kPa, x1 = 0.2044	–	–	-0.0752
10000 kPa, x1 = 0.265	–	-0.0917	–
10000 kPa, x1 = 0.2667	–	–	-0.086
10000 kPa, x1 = 0.2678	-0.0878	–	–
10000 kPa, x1 = 0.3249	–	-0.0989	–
10000 kPa, x1 = 0.3267	–	–	-0.0926
10000 kPa, x1 = 0.3279	-0.0955	–	–
10000 kPa, x1 = 0.3829	-0.0988	-0.102	–
10000 kPa, x1 = 0.3835	–	–	-0.0962
10000 kPa, x1 = 0.4381	-0.0997	-0.103	-0.0965
10000 kPa, x1 = 0.4919	–	–	-0.0945
10000 kPa, x1 = 0.4933	-0.0979	-0.101	–
10000 kPa, x1 = 0.5421	–	–	-0.0909
10000 kPa, x1 = 0.5443	-0.0944	-0.0972	–
10000 kPa, x1 = 0.5902	–	-0.0923	–
10000 kPa, x1 = 0.5926	–	–	-0.0858
10000 kPa, x1 = 0.5941	-0.0891	–	–
10000 kPa, x1 = 0.6383	-0.0835	-0.0856	-0.0795
10000 kPa, x1 = 0.6845	-0.0762	-0.0782	–
10000 kPa, x1 = 0.7283	-0.0684	-0.0701	–
10000 kPa, x1 = 0.7739	-0.0591	-0.0605	–
10000 kPa, x1 = 0.8118	-0.0505	-0.0517	–
10000 kPa, x1 = 0.8511	-0.0409	-0.042	–
10000 kPa, x1 = 0.8917	-0.0305	-0.0311	–
10000 kPa, x1 = 0.9285	-0.0202	-0.021	–
10000 kPa, x1 = 0.9665	-0.00903	-0.00989	–
